Data as given in PubChem BioAssay AID504828 (Johns Hopkins Ion Channel Center, 2011).

Molecular target: Inward rectifier potassium channel 2 (Mus musculus) (UniProt P35561)
Test: Kir2.1 current blockers by manual electrophysiology, SAR follow-up, orthogonal assay, manual whole-cell patch clamp, extended SAR, set 1 (AID 504828)
Conditions: Kir2.1-expressing cells, -100 mV;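 active = compounds lowering Kir2.1 channel current, measured at -100 mV, at one or more tested doses; inactive = the rest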

Inward rectifier potassium channel 2 (Mus musculus), sequence (P35561 whole entry, looked up): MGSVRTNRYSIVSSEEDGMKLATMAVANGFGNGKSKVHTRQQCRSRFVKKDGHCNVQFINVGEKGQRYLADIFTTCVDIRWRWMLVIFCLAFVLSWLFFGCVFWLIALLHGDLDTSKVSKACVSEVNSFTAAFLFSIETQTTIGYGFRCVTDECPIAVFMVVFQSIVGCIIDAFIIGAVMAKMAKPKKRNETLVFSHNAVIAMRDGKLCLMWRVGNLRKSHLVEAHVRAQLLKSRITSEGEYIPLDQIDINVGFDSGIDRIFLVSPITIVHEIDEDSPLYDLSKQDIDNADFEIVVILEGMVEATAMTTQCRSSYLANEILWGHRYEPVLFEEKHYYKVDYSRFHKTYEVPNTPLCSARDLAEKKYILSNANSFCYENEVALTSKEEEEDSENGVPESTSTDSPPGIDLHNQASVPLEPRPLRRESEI

IC50, active:
O=S(=O)(c1ccc(F)cc1)N1CCCc2ccccc21 11.1 µM
Cc1ccc(C)c(OCCCNCc2ccccc2)c1 5.94 µM
Cc1noc(C)c1COC(=O)CCN1c2ccccc2Sc2ccccc21 3.21 µM
CC(NS(=O)(=O)c1ccc(Br)cc1)c1ccccc1 (stereo unspecified) 8.82 µM
CC(O)CNCCCOc1cccc(Oc2ccccc2)c1 (stereo unspecified) 4.12 µM
Cc1ccc2nc(NCc3ccccc3)[nH]c2c1 16.6 µM
